Key:
[1] = test system: human mesenchymal stem cells (hMSC); test: Cell differentiation ability by alkaline phosphatase (ALP) staining; type: cell-based; parameters: dose or concentration left out as unconfirmed; details: hard tissue-forming medium, 14 days, compared with PBS; FIG. 4A d-f
Procedure: In order to detect alkaline phosphate (ALP), which is a label material shown at the initial stage of bone differentiation, for cell differentiation ability of the cell permeable peptide-bone differentiation inducing sequence conjugate, human mesenchymal stem cells (hMSC) were seeded in a 24-well plate at 1×10^3/well, and then treated with the cell permeable peptide-bone differentiation inducing sequence conjugate synthesized from Example 1 and the bone differentiation inducing sequence of Comparative Example 2 of […] for each, and then incubated in a hard tissue forming medium for 14 days. The hard tissue-forming medium contained an MSCBM medium containing 15% FBS (fetal bovine serum), […] of L-ascorbic acid, 10^−7 M dexamethasone, 1% antibiotic-antimycotic solution, and 10 mM beta-glycerol phosphate. After completion of the incubation, the medium was removed, and then the cells were washed with phosphate buffer solution (PBS) twice. The cells were fixed with 10% NBF at room temperature for 20 minutes, and then washed with a phosphate buffer solution (PBS) twice. Then, staining was conducted using the Alkaline phosphatase detection kit (Millipore, USA) by the experiment method recommended by the manufacture.

[2] = test system: human mesenchymal stem cells (hMSC); test: Cell differentiation ability by calcein staining; type: cell-based; parameters: dose or concentration left out as unconfirmed; details: hard tissue-forming medium with calcein, 14 days, compared with PBS; FIG. 4A g-i
Procedure: In order to confirm cell differentiation ability of the cell permeable peptide-bone differentiation inducing sequence conjugate, human mesenchymal stem cells (hMSC) were seeded in each well of a 4-well chamber slide at 5×10^3/well, and then incubated in a general medium for 20 hours (overnight) for cell stabilization. The cells were treated with the cell permeable peptide-bone differentiation inducing sequence conjugate synthesized from Example 1 and the bone differentiation inducing sequence of Comparative Example 2 of […] for each, and then incubated in a hard tissue forming medium containing calcein (calcium staining, green) for 14 days. The composition of the hard tissue-forming medium consisted of an MSCBM medium containing 15% FBS (fetal bovine serum), […] of L-ascorbic acid, 10^−7 M dexamethasone, 1% antibiotic-antimycotic solution, and 10 mM beta-glycerol phosphate. After completion of the incubation, the medium was removed, and then the cells were washed with phosphate buffer solution (PBS) twice. The cells washed with the phosphate buffer solution were fixed with 10% NBF (neutral buffered formalin), and then the nucleus was stained (Hoechst 33342, blue). […]

[3] = test system: ALP, OCN, and RUNX2; test: Bone differentiation marker genes by quantitative real-time PCR and electrophoresis; type: cell-based, human; details: EtBr agarose gel, compared with PBS; FIG. 4C
Procedure: In order to confirm cell differentiation ability of the cell permeable peptide-bone differentiation inducing sequence conjugate through bone tissue differentiation marker genes, human mesenchymal stem cells (hMSC) were seeded in each well of a 6 cm-dish at 1×10^5/well, and then incubated in a general medium for 20 hours (overnight) for cell stabilization. After 20 hours of incubation, the cells were treated with the cell permeable peptide-bone differentiation inducing sequence conjugate and 10 μm of the bone differentiation inducing sequence of Comparative Example 2 for 72 hours.
After that, the entire RNA was separated from the treated cells, using a Trizol® reagent (reagent for isolating RNA from cell and tissue samples) (Invitrogen Life Technologies, USA), according to the manufacturer's instructions, and the amount and purity of the entire RNA were measured by the spectrophotometer. […]
In order to carry out the quantitative real-time PCR, cDNA to be used as a template and primers were mixed, like in RT-PCR, and then 10 μl of SYBR® Green Premix Ex Taq (TaKaRa, JAPAN) was mixed therewith to prepare a reaction material. […] The CT value of each gene was […] the CT value for housekeeping GAPDH gene and the value calculated based on the negative control was taken, so that comparison in the degree of mRNA expression was conducted (Shin et al., (2007) Plant J. 49, 981-994).

Substance: NH2-GAPPPADSAP-SSRKKNPNCRRH-C-COONH2 (H-GAPPPADSAPSSRKKNPNCRRHC-NH2; cysteine pairing not given here) [Example 1]
- differentiation into osteoblast, alkaline phosphatase staining [1]: relatively strong staining degree of alkaline phosphatase
- calcein staining degree of phosphorylated calcium [2]: relatively strong staining degree of phosphorylated calcium
- bands of ALP, OCN, and RUNX2 PCR products (electrophoresis) [3]: noticeably increased bands

Reference: US9023987B2, “Cell-permeable peptide” (Seoul National University R&DB Foundation, priority 2010, dated 2015)
